{"source": "patent US20060058374A1", "about": "“Urotensin II receptor agents” (priority 2002, published 2006)", "type_in_all_cases": "cell-based", "key": {"[1]": {"molecular_target": "T1, urotensin II receptor (Homo sapiens, UniProt Q9UKP6)", "T1 construct": "expressed in transfected cells; host or cells: NIH3T3", "T1 sequence (Q9UKP6 1-389)": "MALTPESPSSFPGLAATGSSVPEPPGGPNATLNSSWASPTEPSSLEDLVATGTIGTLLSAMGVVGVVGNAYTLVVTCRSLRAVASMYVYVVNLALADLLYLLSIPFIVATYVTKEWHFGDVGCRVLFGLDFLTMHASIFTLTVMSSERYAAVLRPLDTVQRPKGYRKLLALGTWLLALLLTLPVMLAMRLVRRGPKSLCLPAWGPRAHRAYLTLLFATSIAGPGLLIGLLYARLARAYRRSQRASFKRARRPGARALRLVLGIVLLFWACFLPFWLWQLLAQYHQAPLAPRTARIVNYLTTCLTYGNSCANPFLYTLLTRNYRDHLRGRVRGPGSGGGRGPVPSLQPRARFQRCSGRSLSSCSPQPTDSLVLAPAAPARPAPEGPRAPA", "assay": "R-SAT assay, Urotensin II receptor", "protocol": "(§1) The test compound of Formula III was screened according to a modification of the method described in U.S. Pat. No. 5,912,312. The method, herein referred to as Method 1, consists of the following:\n(§2) Receptor Selection and Amplification (R-SAT) Assays.\n(§3) R-SAT assays were performed with minor modifications from that previously described (6). Briefly, NIH3T3 cells were grown in tissue culture treated rollerbottles to 40-50% confluence. Cells were transfected for 12-16 hours with plasmid DNAs using superfect (Qiagen Inc.) as per manufacture's protocols. R-SAT's were generally performed with 10 μg/rollerbottle of receptor and 50 μg/rollerbottle of Beta-galactosidase plasmid DNA. All receptor and G-protein constructs used were in the PSI mammalian expression vector (Promega Inc.). The transfected cells were then trypsinized and frozen in DMEM containing 10% DMSO. Frozen cells were later thawed, plated at 10,000-40,000 cells per well of a 96 ½ area plate that contained drug. Cells were then grown in a humidified atmosphere with 5% ambient CO2 for five days. Media was then removed from the plates and marker gene activity was measured by the addition of the beta-galactosidase substrate ONPG (in PBS with 5% NP-40). The resulting colorimetric reaction was measured in a spectrophotometric plate reader (Titertek Inc.) at […].\n(§4) EC50, IC50 and Ki are presented as the negative of the calculated potency in Molar."}, "[2]": {"molecular_target": "T2, Acetylcholine m3 (Homo sapiens, UniProt P20309)", "T2 construct": "expressed in transfected cells; host or cells: NIH3T3", "T2 sequence (P20309 whole entry)": "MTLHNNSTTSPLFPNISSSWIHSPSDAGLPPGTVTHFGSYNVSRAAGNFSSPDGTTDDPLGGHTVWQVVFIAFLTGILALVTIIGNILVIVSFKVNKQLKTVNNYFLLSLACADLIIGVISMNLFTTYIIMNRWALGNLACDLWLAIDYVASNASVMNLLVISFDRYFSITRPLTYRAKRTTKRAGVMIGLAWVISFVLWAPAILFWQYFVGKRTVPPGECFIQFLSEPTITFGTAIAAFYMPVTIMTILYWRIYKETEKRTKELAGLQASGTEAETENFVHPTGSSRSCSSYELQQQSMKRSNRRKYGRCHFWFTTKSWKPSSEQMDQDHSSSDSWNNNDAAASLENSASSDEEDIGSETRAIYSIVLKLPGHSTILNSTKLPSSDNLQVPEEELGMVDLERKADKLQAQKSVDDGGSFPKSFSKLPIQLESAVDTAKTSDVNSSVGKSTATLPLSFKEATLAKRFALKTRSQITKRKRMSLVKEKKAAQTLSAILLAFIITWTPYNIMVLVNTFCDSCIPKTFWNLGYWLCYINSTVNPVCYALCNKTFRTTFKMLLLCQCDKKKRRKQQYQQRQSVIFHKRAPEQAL", "assay": "R-SAT assay, Acetylcholine m3", "protocol": "as §1, §2\nas §3, with “Cells were then grown in a humidified atmosphere with 5% ambient CO2 for five days.” left out\nas §4"}, "[3]": {"molecular_target": "T3, Acetylcholine m5 (Homo sapiens, UniProt P08912)", "T3 construct": "expressed in transfected cells; host or cells: NIH3T3", "T3 sequence (P08912 1-532)": "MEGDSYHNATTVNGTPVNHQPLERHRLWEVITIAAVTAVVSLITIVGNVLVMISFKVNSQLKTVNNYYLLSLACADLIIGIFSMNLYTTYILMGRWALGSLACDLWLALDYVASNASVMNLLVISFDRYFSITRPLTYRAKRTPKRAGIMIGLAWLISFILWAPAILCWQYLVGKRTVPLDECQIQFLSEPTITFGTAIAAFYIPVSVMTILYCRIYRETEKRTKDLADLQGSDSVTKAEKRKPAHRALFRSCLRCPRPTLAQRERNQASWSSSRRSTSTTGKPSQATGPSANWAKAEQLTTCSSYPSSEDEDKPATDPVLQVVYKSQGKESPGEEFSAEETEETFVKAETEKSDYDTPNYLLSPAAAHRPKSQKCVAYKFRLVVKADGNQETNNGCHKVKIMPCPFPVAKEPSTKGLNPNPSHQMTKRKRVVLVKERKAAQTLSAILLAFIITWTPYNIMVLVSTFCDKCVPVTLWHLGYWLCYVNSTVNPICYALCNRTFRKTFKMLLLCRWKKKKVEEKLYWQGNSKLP", "assay": "R-SAT assay, Acetylcholine m5", "protocol": "as §1, §2, §3, §4"}, "[4]": {"molecular_target": "T4, Dopamine D2 (Homo sapiens, UniProt P14416)", "T4 construct": "expressed in transfected cells; host or cells: NIH3T3", "T4 sequence (P14416 whole entry)": "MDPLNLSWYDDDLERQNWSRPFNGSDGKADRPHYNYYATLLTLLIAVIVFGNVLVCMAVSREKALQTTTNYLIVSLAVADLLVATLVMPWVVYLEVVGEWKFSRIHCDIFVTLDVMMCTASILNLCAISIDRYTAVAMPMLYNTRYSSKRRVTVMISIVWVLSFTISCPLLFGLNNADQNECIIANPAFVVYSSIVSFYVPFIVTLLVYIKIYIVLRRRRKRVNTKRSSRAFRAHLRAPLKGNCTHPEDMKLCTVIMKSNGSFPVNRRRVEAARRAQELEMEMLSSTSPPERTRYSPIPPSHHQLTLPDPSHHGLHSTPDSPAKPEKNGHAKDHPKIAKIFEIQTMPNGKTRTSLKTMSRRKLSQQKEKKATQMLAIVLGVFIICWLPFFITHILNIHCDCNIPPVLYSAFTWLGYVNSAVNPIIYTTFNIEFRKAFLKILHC", "assay": "R-SAT assay, Dopamine D2", "protocol": "as §1, §2\nas §3, with “Cells were then grown in a humidified atmosphere with 5% ambient CO2 for five days.” left out\nas §4"}, "[5]": {"molecular_target": "T5, Dopamine D1 (Homo sapiens, UniProt P21728)", "T5 construct": "expressed in transfected cells; host or cells: NIH3T3", "T5 sequence (P21728 whole entry)": "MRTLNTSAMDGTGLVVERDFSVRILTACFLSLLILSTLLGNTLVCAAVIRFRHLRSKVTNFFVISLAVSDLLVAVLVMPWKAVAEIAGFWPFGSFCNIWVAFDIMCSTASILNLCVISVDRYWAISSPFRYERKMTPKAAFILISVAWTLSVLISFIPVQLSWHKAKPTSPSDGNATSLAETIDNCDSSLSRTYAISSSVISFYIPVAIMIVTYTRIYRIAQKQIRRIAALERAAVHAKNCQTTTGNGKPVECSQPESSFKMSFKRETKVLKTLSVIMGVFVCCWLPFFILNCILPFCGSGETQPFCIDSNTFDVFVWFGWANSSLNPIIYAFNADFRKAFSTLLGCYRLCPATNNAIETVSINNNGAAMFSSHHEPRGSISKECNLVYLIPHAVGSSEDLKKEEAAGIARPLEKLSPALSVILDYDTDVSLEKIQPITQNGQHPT", "assay": "R-SAT assay, Dopamine D1", "protocol": "as §1, §2\nas §3, with “Cells were then grown in a humidified atmosphere with 5% ambient CO2 for five days.” left out\nas §4"}, "[6]": {"molecular_target": "T6, Dopamine D5 (Homo sapiens, UniProt P21918)", "T6 construct": "expressed in transfected cells; host or cells: NIH3T3", "T6 sequence (P21918 whole entry)": "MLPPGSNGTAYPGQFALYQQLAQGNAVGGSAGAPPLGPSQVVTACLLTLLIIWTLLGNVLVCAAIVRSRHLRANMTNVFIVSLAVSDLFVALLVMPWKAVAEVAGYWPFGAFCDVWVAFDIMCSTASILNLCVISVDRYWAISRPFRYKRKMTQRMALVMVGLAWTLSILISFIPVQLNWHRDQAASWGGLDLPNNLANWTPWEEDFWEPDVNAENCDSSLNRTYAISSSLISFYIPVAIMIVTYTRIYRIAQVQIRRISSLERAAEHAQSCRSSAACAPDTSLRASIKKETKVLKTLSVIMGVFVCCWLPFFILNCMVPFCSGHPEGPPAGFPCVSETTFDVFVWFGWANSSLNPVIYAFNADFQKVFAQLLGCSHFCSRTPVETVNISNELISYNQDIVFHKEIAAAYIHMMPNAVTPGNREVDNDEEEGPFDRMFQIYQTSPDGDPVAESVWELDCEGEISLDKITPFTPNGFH", "assay": "R-SAT assay, Dopamine D5", "protocol": "as §1, §2\nas §3, with “Cells were then grown in a humidified atmosphere with 5% ambient CO2 for five days.” left out\nas §4"}, "[7]": {"molecular_target": "T7, Serotonin 5HT-1E (Homo sapiens, UniProt P28566)", "T7 construct": "expressed in transfected cells; host or cells: NIH3T3", "assay": "R-SAT assay, Serotonin 5HT-1E", "settings": "percent maximal activation relative to control compound", "protocol": "as §1, §2\nas §3, with “Cells were then grown in a humidified atmosphere with 5% ambient CO2 for five days.” left out\nas §4"}, "[8]": {"molecular_target": "T8, Serotonin 5HT2a (Homo sapiens, UniProt P28223)", "T8 construct": "expressed in transfected cells; host or cells: NIH3T3", "T8 sequence (P28223 whole entry)": "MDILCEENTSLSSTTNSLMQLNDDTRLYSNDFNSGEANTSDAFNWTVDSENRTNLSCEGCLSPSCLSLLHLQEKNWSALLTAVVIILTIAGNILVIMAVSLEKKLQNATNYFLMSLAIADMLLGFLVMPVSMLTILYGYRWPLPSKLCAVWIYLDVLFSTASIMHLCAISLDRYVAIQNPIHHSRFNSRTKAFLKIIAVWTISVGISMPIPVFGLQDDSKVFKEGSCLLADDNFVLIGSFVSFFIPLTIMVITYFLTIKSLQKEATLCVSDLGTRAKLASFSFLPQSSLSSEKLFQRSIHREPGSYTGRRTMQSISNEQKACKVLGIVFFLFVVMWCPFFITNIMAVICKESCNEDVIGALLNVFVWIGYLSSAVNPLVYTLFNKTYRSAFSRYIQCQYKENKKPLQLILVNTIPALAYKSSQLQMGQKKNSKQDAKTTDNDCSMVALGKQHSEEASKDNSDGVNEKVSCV", "assay": "R-SAT assay, Serotonin 5HT2a", "protocol": "as §1, §2\nas §3, with “Cells were then grown in a humidified atmosphere with 5% ambient CO2 for five days.” left out\nas §4"}, "[9]": {"molecular_target": "T9, Serotonin 5HT6 (Homo sapiens, UniProt P50406)", "T9 construct": "expressed in transfected cells; host or cells: NIH3T3", "T9 sequence (P50406 whole entry)": "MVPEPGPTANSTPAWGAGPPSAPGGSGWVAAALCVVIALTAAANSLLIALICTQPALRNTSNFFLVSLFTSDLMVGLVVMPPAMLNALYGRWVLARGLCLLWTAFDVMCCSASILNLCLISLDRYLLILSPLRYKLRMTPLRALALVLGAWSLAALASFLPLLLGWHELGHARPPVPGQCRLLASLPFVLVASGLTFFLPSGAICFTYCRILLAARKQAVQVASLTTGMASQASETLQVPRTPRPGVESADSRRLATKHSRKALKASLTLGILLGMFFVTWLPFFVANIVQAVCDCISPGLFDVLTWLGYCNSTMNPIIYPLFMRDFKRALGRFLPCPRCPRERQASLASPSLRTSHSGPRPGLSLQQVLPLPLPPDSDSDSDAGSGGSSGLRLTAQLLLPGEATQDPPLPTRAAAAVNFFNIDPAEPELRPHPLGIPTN", "assay": "R-SAT assay, Serotonin 5HT6", "settings": "percent maximal activation relative to control compound", "protocol": "as §1, §2\nas §3, with “Cells were then grown in a humidified atmosphere with 5% ambient CO2 for five days.” left out\nas §4"}, "[10]": {"molecular_target": "T10, Serotonin 5HT7 (Homo sapiens, UniProt P34969)", "T10 construct": "expressed in transfected cells; host or cells: NIH3T3", "T10 sequence (P34969 whole entry)": "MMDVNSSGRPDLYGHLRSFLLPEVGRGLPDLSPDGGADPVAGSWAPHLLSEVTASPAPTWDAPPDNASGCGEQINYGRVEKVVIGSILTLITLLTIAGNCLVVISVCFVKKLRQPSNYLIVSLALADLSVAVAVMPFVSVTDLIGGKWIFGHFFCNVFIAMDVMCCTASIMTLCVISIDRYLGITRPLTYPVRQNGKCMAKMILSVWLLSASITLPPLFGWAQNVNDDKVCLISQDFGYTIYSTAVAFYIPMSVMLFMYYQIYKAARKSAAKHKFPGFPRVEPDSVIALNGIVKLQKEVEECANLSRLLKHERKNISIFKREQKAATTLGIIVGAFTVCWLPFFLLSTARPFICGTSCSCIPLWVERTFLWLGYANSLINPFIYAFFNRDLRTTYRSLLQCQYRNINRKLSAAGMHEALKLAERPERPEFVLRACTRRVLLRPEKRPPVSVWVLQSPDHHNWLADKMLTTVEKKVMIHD", "assay": "R-SAT assay, Serotonin 5HT7", "settings": "percent maximal activation relative to control compound", "protocol": "as §1, §2\nas §3, with “Cells were then grown in a humidified atmosphere with 5% ambient CO2 for five days.” left out\nas §4"}, "[11]": {"molecular_target": "T11, Histamine H2 (Homo sapiens, UniProt P25021)", "T11 construct": "expressed in transfected cells; host or cells: NIH3T3", "T11 sequence (P25021 whole entry)": "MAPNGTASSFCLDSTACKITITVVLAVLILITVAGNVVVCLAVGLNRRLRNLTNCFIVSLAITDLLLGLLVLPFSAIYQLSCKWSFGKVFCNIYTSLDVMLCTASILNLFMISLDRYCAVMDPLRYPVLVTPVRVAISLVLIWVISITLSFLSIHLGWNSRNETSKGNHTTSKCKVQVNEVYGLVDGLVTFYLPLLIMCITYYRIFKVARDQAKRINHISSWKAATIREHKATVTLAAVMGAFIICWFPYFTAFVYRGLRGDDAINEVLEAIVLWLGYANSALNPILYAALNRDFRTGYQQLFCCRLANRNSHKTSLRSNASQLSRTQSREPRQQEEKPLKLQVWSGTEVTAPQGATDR", "assay": "R-SAT assay, Histamine H2", "protocol": "as §1, §2\nas §3, with “Cells were then grown in a humidified atmosphere with 5% ambient CO2 for five days.” left out\nas §4"}, "[12]": {"molecular_target": "T12, Beta Adrenergic 1 (Homo sapiens, UniProt P08588)", "T12 construct": "expressed in transfected cells; host or cells: NIH3T3", "assay": "R-SAT assay, Beta Adrenergic 1", "settings": "percent maximal activation relative to control compound", "protocol": "as §1, §2\nas §3, with “Cells were then grown in a humidified atmosphere with 5% ambient CO2 for five days.” left out\nas §4"}, "[13]": {"molecular_target": "T13, Beta Adrenergic 2 (Homo sapiens, UniProt P07550)", "T13 construct": "expressed in transfected cells; host or cells: NIH3T3", "T13 sequence (P07550 whole entry)": "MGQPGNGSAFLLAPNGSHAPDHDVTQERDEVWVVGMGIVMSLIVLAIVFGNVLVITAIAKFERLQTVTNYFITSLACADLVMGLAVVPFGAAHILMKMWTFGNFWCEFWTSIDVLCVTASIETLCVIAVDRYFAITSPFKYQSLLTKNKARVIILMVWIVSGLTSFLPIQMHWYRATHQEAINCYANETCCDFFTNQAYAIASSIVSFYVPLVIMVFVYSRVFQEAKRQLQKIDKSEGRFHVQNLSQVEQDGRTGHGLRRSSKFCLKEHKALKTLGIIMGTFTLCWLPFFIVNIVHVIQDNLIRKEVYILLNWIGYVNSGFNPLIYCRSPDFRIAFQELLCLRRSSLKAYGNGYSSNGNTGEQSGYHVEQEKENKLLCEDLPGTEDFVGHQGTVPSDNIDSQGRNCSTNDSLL", "assay": "R-SAT assay, Beta Adrenergic 2", "protocol": "as §1, §2\nas §3, with “Cells were then grown in a humidified atmosphere with 5% ambient CO2 for five days.” left out\nas §4"}, "[14]": {"molecular_target": "T14, SST2 (Homo sapiens, UniProt P30874)", "T14 construct": "expressed in transfected cells; host or cells: NIH3T3", "assay": "R-SAT assay, SST2", "settings": "percent maximal activation relative to control compound", "protocol": "as §1, §2\nas §3, with “Cells were then grown in a humidified atmosphere with 5% ambient CO2 for five days.” left out\nas §4"}, "[15]": {"molecular_target": "T15, SST3 (Homo sapiens, UniProt P32745)", "T15 construct": "expressed in transfected cells; host or cells: NIH3T3", "T15 sequence (P32745 whole entry, species assumed)": "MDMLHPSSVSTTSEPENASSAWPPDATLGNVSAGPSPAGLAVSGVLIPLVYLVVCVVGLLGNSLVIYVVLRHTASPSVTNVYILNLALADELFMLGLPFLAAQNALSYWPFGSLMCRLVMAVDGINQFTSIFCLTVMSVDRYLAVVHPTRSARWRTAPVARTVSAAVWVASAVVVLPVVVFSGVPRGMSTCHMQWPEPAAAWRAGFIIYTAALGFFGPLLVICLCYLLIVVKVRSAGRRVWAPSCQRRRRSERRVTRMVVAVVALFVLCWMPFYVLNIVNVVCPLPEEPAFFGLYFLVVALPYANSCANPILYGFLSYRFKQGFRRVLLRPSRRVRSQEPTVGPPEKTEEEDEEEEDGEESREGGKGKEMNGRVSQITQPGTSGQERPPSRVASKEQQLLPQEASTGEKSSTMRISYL", "assay": "R-SAT assay, SST3", "settings": "percent maximal activation relative to control compound", "protocol": "as §1, §2\nas §3, with “Cells were then grown in a humidified atmosphere with 5% ambient CO2 for five days.” left out\nas §4"}, "[16]": {"molecular_target": "T16, CRF1 (Homo sapiens, UniProt P34998)", "T16 construct": "expressed in transfected cells; host or cells: NIH3T3", "T16 sequence (P34998 24-415)": "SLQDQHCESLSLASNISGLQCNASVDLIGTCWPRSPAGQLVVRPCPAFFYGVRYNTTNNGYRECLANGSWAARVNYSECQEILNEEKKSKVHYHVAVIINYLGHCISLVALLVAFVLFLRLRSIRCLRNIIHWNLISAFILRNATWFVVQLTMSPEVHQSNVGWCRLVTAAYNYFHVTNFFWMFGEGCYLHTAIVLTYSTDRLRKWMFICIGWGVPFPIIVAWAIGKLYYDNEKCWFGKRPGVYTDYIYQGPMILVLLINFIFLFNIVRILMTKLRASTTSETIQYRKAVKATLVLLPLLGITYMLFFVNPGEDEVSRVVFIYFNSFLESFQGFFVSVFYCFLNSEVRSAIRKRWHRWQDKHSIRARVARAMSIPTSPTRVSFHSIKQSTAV", "assay": "R-SAT assay, CRF1", "settings": "percent maximal activation relative to control compound", "protocol": "as §1, §2\nas §3, with “Cells were then grown in a humidified atmosphere with 5% ambient CO2 for five days.” left out\nas §4"}, "[17]": {"molecular_target": "T17, CCKa (Homo sapiens, UniProt P32238)", "T17 construct": "expressed in transfected cells; host or cells: NIH3T3", "assay": "R-SAT assay, CCKa", "settings": "percent maximal activation relative to control compound", "protocol": "as §1, §2\nas §3, with “Cells were then grown in a humidified atmosphere with 5% ambient CO2 for five days.” left out\nas §4"}, "[18]": {"molecular_target": "T18, Serotonin 5HT-1A (Homo sapiens, UniProt P08908)", "T18 construct": "expressed in transfected cells; host or cells: NIH3T3", "assay": "R-SAT assay, Serotonin 5HT-1A", "settings": "competitive antagonist mode; percent maximal inhibition relative to control standard compound", "protocol": "as §1, §2\nas §3, with “Cells were then grown in a humidified atmosphere with 5% ambient CO2 for five days.” left out\nas §4"}, "[19]": {"settings": "percent maximal activation relative to control compound"}, "[20]": {"settings": "competitive antagonist mode, percent maximal inhibition relative to control standard compound"}, "[21]": {"settings": "inverse agonist mode, percent maximal inhibition relative to repression of basal activity by a control standard compound"}}, "note": "Where two headings read alike, the source gives them in different places.", "data": [{"smiles": "CN(C)CCC1(c2ccc(Cl)cc2)Cc2ccccc2C(=O)O1", "note": "(stereo not drawn) [Formula III]", "values": [{"measurement": "EC50", "setting": "[1]; agonist mode, negative of the calculated potency in Molar, read-out: Agonist EC50 (converted)", "value": 100, "unit": "nM"}, {"measurement": "maximal biological response", "setting": "[1]; compared with the response evoked by the urotensin II peptide", "value": "equal to or greater than the response evoked by the urotensin II peptide"}, {"measurement": "EC50", "setting": "[1]; functional potency, Example 1 (Method 1), read-out: EC50 for the urotensin II receptor", "value": 200, "unit": "nM"}, {"measurement": "Agonist % Eff", "setting": "[1]; [19]", "value": 132, "unit": "%"}, {"measurement": "Competitive Antagonist % Inh", "setting": "[2]; [20]", "value": 28, "unit": "%"}, {"measurement": "Agonist % Eff", "setting": "[2]; [19]", "value": 1.8, "unit": "%"}, {"measurement": "Ki", "setting": "[3]; competitive antagonist mode, negative of the calculated potency in Molar", "value": "> 2240", "unit": "nM"}, {"measurement": "Competitive Antagonist % Inh", "setting": "[3]; [20]", "value": 55, "unit": "%"}, {"measurement": "Agonist % Eff", "setting": "[3]; [19]", "value": 3.6, "unit": "%"}, {"measurement": "Competitive Antagonist % Inh", "setting": "[4]; [20]", "value": 13.2, "unit": "%"}, {"measurement": "Agonist % Eff", "setting": "[4]; [19]", "value": 13.6, "unit": "%"}, {"measurement": "Competitive Antagonist % Inh", "setting": "[5]; [20]", "value": 0, "unit": "%"}, {"measurement": "Agonist % Eff", "setting": "[5]; [19]", "value": 0, "unit": "%"}, {"measurement": "Competitive Antagonist % Inh", "setting": "[6]; [20]", "value": 0, "unit": "%"}, {"measurement": "Agonist % Eff", "setting": "[6]; [19]", "value": 0, "unit": "%"}, {"measurement": "Agonist % Eff", "setting": "[7]", "value": 19, "unit": "%"}, {"measurement": "Inverse Agonist % Inh", "setting": "[8]; [21]", "value": 11.9, "unit": "%"}, {"measurement": "Agonist % Eff", "setting": "[8]; [19]", "value": 58, "unit": "%"}, {"measurement": "Agonist % Eff", "setting": "[9]", "value": 0, "unit": "%"}, {"measurement": "Agonist % Eff", "setting": "[10]", "value": 0, "unit": "%"}, {"measurement": "Inverse Agonist % Inh", "setting": "[11]; [21]", "value": 0, "unit": "%"}, {"measurement": "Agonist % Eff", "setting": "[11]; [19]", "value": 0, "unit": "%"}, {"measurement": "Agonist % Eff", "setting": "[12]", "value": 0, "unit": "%"}, {"measurement": "Competitive Antagonist % Inh", "setting": "[13]; [20]", "value": 0, "unit": "%"}, {"measurement": "Agonist % Eff", "setting": "[13]; [19]", "value": 0, "unit": "%"}, {"measurement": "Agonist % Eff", "setting": "[14]", "value": 0, "unit": "%"}, {"measurement": "Agonist % Eff", "setting": "[15]", "value": 0, "unit": "%"}, {"measurement": "Agonist % Eff", "setting": "[16]", "value": 0, "unit": "%"}, {"measurement": "Agonist % Eff", "setting": "[17]", "value": 0, "unit": "%"}, {"measurement": "Competitive Antagonist % Inh", "setting": "[18]", "value": 0, "unit": "%"}]}]}
